Results published in publication PMC9354042, “Discovery of BRAF/HDAC Dual Inhibitors Suppressing Proliferation of Human Colorectal Cancer Cells” (Frontiers in Chemistry, 2022).
pIC50: −log10 of the molar value. Like-named read-outs stand apart in the source and are kept apart here.

Biological target: T1, HDAC6 (Homo sapiens, UniProt Q9UBN7)
T1 construct: purchased BPS Bioscience
T1 sequence (Q9UBN7 1-1215): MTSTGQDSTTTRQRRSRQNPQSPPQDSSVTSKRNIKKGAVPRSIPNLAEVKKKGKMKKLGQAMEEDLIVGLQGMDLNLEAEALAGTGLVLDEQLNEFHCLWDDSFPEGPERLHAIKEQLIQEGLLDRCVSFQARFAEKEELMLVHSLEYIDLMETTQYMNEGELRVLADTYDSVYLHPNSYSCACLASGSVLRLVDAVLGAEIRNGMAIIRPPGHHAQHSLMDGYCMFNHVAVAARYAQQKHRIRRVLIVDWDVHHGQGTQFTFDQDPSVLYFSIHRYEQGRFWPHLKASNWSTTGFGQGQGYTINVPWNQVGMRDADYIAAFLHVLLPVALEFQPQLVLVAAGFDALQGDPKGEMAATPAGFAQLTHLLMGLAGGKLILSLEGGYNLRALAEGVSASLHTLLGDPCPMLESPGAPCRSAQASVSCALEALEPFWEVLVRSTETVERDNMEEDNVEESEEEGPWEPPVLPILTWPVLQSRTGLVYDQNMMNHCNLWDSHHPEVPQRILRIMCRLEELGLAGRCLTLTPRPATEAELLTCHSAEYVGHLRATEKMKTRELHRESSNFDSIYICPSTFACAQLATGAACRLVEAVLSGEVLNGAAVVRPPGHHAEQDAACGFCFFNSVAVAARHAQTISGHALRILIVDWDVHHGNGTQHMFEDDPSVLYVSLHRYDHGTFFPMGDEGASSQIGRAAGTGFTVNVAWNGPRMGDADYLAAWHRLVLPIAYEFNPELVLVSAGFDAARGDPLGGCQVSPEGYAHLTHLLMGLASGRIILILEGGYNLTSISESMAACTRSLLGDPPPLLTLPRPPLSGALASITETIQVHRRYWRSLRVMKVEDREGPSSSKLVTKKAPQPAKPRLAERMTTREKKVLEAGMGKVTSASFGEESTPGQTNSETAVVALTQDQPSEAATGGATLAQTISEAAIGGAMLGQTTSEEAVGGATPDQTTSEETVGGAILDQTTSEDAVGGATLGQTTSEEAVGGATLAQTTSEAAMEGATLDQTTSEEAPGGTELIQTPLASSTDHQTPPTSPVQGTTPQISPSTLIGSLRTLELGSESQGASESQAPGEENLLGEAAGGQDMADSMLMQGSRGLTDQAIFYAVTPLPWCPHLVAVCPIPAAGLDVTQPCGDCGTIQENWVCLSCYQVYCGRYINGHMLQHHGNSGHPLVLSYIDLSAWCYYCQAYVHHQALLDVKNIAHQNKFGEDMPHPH
Test: HDAC6 fluorescent-based enzymatic activity assay
Format: biochemical
Protocol: The purified recombinant Human HDACs and their corresponding substrates were purchased from BPS Bioscience (BPS Bioscience Inc., United States). The assays were carried out in a 384-well format using the BPS fluorescent–based HDAC activity assay according to the manufacturer’s protocol. In brief, […] of the HDAC reaction mixture was composed of HDAC assay buffer, […] BSA, serial diluted test compounds, appropriate concentration of HDACs, and […] fluorogenic substrate, the mixture was incubated at 37°C for 60 min, and then stopped by the addition of developer containing trypsin and TSA. After 20 min of incubation, the fluorescence was detected at the excitation wavelength of 360 nm and the emission wavelength of 460 nm using the EnVision Multilabel Reader (PerkinElmer Inc., United States). The analytical software, GraphPad Prism 5.0 (GraphPad Software, Inc., United States) was used to generate IC50 value via non-linear regression analysis.

HDAC6 inhibition fold more potent than class I isoforms (HDAC6 vs HDAC1, HDAC2, HDAC3, HDAC8): > 10 fold | HDAC6 inhibition fold more potent than class IIA HDACs (HDAC6 vs HDAC4, HDAC5, HDAC7): > 800 fold | pIC50 (Table 1, read-out: Enzymatic IC50 HDAC6): 7.31 | pIC50 (Table 3 isoform panel, read-out: Enzyme inhibition HDAC6 (Class IIB)): 7.31
Structure (SMILES): CC(C)(C)c1nc(-c2cccc(NS(=O)(=O)c3c(F)cccc3F)c2F)c(-c2ccnc(NCCCCCCC(=O)NO)n2)s1 [14b, 7-{[4-(2-(Tert-Butyl)-4-(3-((2,6-Difluorophenyl)Sulfonamido)-2-Fluorophenyl)Thiazol-5-yl)Pyrimidin-2-yl]Amino}-N-Hydroxyheptanamide]
